Experimental data taken from patent US9210928B2, “Plant development control composition” (Syngenta Crop Protection, LLC, priority 2008, dated 2015).
“Also recorded” adds a separate entry of the source.

Columns and labels:
whole Arabidopsis plants = assay: Shoot branching in whole Arabidopsis plants grown in agar; type: in vivo; details: for unintended effects on whole Arabidopsis plants: applied to whole plants; for branching phenotype of whole plants (in words): plants grown under sterile conditions in agar
Procedure: Branching phenotypes of Arabidopsis plants grown in agar media for 45 days supplemented with inhibitor D6. Images are shown: (a) Col-0 (WT) without inhibitor; (b) max3-9 mutant without inhibitor; (c) Col-0 with 100 μM D6. The numbers (d) of rosette branches were quantified. Error bars represent standard error of the mean, n=6 to 12.
Stimulation of shoot branching in whole Arabidopsis plants—Inhibitors were also applied to Arabidopsis whole plants grown under sterile conditions in agar. […] Inhibitor treated plants were intermediate (mean of approximately 2 branches) and so partially mimicked max3-9 (FIG. 6d).

LeCCD1a [1] = target: LeCCD1a (Solanum lycopersicum, UniProt Q6E4P5); assay: In vitro LeCCD1a enzyme assay (recombinant cell-free extract, colourimetric, apo-8′-carotenal substrate); type: biochemical, tomato (Solanum lycopersicum); details: for IC50 / LeCCD1a (9,10/9′,10′) Inhibition @ 100 μM (%): E. coli cell extract with recombinant CCD; for IC50: read-out: LeCCD1a (9,10/9′,10′) IC50; for inhibition at 100 µM: read-out: LeCCD1a (9,10/9′,10′) Inhibition @ 100 μM (%); for LeCCD1a (9,10/9′,10′) Inhibition @ 100 μM (%): 100 μM inhibitor
Procedure: In vitro LeCCD1a enzyme assay—We over-expressed LeCCD1a in E. coli, as a GST-fusion protein (supplemental methods). The in vitro assay of LeCCD1a was based on reported methods (37), and was carried out in a 200 μl total volume in a 96-well microtitre plate, with the signal detected at 485 nm. To prepare substrate solution for each assay, 5 μl of 4% (w/v in ethanol) apo-8′-carotenal (Sigma) was mixed with 25 μl of 4% (w/v in ethanol) β-octylglucoside (Sigma), the ethanol was then evaporated under nitrogen, and the residue dissolved in 150 μl PBS buffer containing 10 mM sodium ascorbate by incubation at 20° C. for 30 min. 50 μl of cell-free extract containing recombinant LeCCD1a was added, and the reactions monitored over 30 min at 20° C.
(§1) For the production of cell-free extracts of LeCCD1a and LeNCED1, cultures were grown to an OD of 0.6 at 37° C., then isopropyl β-D-1-thiogalactopyranoside (IPTG) was added to 0.2 mM and the cultures grown overnight at 20° C. The cells (200 ml cultures) were harvested by centrifugation (5000 rpm, 10 min) and the pellet re-suspended in 4 ml PBS, 0.1% Triton-X 100. Lysozyme was added to a final concentration of 25 μg ml^−1 and the solution incubated at room temperature for 15 min before sonication (3×30 s at 18Ω) on ice. The lysate was then centrifuged (13000 rpm, 15 min, 4° C.) and the supernatant used for the assay.
(§2) Specificity of inhibition in vitro for tomato genes LeNCED1 and LeCCD1a—In order to screen the inhibitors against enzymes which cleave carotenoids at the 9,10 position, we used the recombinant tomato LeCCD1a protein (44), because this type of enzyme can be studied using an in vitro colourimetric assay with β-apo-8′-carotenal as substrate (37). To establish the specificity of the inhibitors, they were also tested against the tomato LeNCED1 recombinant protein which cleaves 9-cis carotenoids at the 11,12 position (45). For this enzyme, the cleavage reaction was monitored by C18 reverse phase HPLC, using 9′-cis-neoxanthin as substrate.

LeNCED1 = target: T1, LeNCED1 (Solanum lycopersicum, UniProt O24023); assay: In vitro NCED enzyme assay (recombinant LeNCED1 cell-free extract, HPLC, 9′-cis-neoxanthin substrate); type: biochemical, tomato; details: for LeNCED1 (11,12) Inhibition @ 100 μM (%): 100 μM inhibitor, E. coli cell extract with recombinant CCD
T1 construct: made in house; host or cells: E. coli Rosetta (DE3); crude cell-free extract
Procedure: In vitro NCED enzyme assay—We over-expressed LeNCED1 in E. coli, as an N-terminal His6-fusion protein (supplemental methods). Cell-free extract containing recombinant LeNCED1 was prepared in 100 mM bis-tris buffer (pH 6.7). 15 μl extract was pre-activated by addition of iron(II) sulphate (20 mM, 1 μl) and ascorbic acid (20 mM, 1 μl) on ice for 2 min, prior to use. This aliquot of enzyme was then added to an assay (150 μl total volume) containing 100 mM bis-tris buffer (pH 6.7), 0.05% v/v Triton X-100, 1.0 mg/ml catalase, and 3 μg 9′-cis-neoxanthin. The 9′-cis-neoxanthin substrate was prepared as described in supplemental methods. The enzyme assay was incubated for 15 min in the dark at 20° C. Water (700 μl) was then added, and the products extracted with ethyl acetate (3×1 ml). The organic solvent was removed at reduced pressure, the residue was dissolved in methanol (200 μl), and then 100 μl was injected onto a Phenomenex C18 reverse phase HPLC column, and a gradient of 5-10% methanol in acetonitrile/0.05% triethylamine was applied at 0.5 ml/min over 20 min, detecting at 440 nm. NCED inhibition assays contained 1-100 μM inhibitor; inhibition was calculated from the product formation after 15 min, compared to a control assay with no inhibitor present.
as §1, §2

LeCCD1a [2] = assay: In vivo enzyme assay in β-carotene-producing E. coli expressing LeCCD1a; type: cell-based, Solanum lycopersicum; details: 100 μM inhibitor, 16 hours; FIG. 4
Text: In vivo enzyme assays in E. coli—The genes of interest (supplemental Table S1) were cloned into the vector pET30c (Novagen) fused directly to the initial ATG codon with no tag, or into pGEX-4T such that the gene was fused to an N-terminal GST tag. All genes were full length except AtCCD7, which had the chloroplast signal sequence removed (supplemental methods). […] Therefore, this construct was used in subsequent assays. The plasmids were transferred to the E. coli expression strain BL21(DE3), harbouring pAC-BETA (38), and therefore producing β-carotene.
For each inhibitor assay, 2.5 ml LB media with the appropriate antibiotics (25 μg ml^−1 chloramphenicol and 50 μg ml^−1 kanamycin or 100 μg ml^−1 ampicillin) and 2.5 μM IPTG, was prepared. Inhibitors (0.1 M in 100% ethanol) were added to the media to a final concentration of 100 μM. The media was then inoculated with 0.25 ml of overnight culture (grown at 37° C. with the appropriate antibiotics) and incubated with shaking (200 rpm) at 28° C. for 16 hours. One ml of culture was harvested by microcentrifugation and resuspended thoroughly in 1 ml ethanol containing 0.2% Triton X-100. After vortexing, the extract was incubated at room temperature in the dark for 3 hours, again vortexed and then spun in a microcentrifuge for 5 min at 13000 rpm. The supernatant was removed and the O.D.453-O.D.550 was measured. The amount of β-carotene was calculated using a standard curve generated from a dilution series of β-carotene (Sigma) in ethanol with 0.2% Triton X-100; the absolute levels of β-carotene are shown in FIG. 8. The relative inhibition was calculated by the equation: (Ci−Cc)/(C1−Cc)×100, where Ci is the carotenoid level with inhibitor and CCD present, Cc is the level with CCD but without the inhibitor and C1 is the level in a strain where lacZ is expressed instead of the CCD, and no inhibitor is present. Thus the increase in β-carotene due to inhibition of the CCD […] was expressed relative to the maximum possible β-carotene content when CCD is absent (C1−Cc).
In vivo activity of inhibitors applied to E. coli strains expressing CCDs—Coloured E. coli strains that produce various carotenoids can be constructed by expression of enzymes for carotenoid synthesis (26). Upon co-expression of the appropriate CCD, the bacteria lose their colour due to cleavage of the carotenoids to colourless products (4,6,27). This technique was employed here to further explore the specificity of inhibitors, and to test their activity in vivo. The level of carotenoid in each CCD-expressing strain was compared to the level of the carotenoid in a control strain producing β-carotene but lacking any CCD gene. The difference in the carotenoid levels gave a measure of CCD activity, and inhibition of this activity was measured by addition of inhibitors to the growing medium.
The inhibitors were tested against four β-carotene-producing E. coli strains (supplemental Table S1). Three of the strains expressed highly divergent CCDs that cleave at the 9,10 position: AtCCD7 from Arabidopsis (21) and MmBCO2 from mouse (6) which both cleave at a single site (9,10 or 9′,10′ but not both), and the tomato enzyme LeCCD1a (44) which cleaves at both sites in the same substrate molecule (9,10/9′,10′ activity). The fourth strain expressed another mouse CCD, MmBCO1 (47), which cleaves centrally at 15,15′. […]

Sequence of LeCCD1a (Solanum lycopersicum, UniProt Q6E4P5) (Q6E4P5 1-545): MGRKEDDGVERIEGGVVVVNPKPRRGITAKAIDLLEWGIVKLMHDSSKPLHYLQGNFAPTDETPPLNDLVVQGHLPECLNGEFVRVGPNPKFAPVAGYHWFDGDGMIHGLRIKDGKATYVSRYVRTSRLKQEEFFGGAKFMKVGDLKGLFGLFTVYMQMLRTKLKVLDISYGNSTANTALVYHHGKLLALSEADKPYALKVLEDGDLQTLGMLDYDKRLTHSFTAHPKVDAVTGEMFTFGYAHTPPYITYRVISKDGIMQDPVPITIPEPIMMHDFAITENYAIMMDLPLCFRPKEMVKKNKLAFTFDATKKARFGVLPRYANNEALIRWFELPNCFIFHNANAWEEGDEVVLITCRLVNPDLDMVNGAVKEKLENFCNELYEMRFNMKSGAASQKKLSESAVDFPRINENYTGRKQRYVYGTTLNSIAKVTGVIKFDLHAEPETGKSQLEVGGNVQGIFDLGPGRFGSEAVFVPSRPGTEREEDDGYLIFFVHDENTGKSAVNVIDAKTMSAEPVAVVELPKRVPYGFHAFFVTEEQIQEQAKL
T1 sequence (O24023 17-605): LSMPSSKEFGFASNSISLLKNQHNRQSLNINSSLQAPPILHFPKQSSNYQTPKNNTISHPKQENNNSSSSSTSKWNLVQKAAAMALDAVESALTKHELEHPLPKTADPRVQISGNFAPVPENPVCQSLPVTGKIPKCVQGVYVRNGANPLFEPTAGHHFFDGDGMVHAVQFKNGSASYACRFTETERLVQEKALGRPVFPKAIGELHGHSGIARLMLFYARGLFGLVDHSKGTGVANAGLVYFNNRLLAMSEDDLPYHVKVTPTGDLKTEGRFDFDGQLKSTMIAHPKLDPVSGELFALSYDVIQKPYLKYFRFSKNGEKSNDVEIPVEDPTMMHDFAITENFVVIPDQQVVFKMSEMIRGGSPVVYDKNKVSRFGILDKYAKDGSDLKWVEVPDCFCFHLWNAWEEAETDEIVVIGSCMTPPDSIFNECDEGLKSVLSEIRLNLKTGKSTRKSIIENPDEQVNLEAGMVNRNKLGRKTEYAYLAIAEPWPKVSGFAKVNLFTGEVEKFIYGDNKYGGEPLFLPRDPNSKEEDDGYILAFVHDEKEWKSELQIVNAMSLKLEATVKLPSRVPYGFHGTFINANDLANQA

## O=C(Cc1ccc(O)cc1)N(O)Cc1ccc(F)cc1 [Compound D2, N-(4-fluorobenzyl)-4-hydroxyphenylacetyl hydroxamic acid]
Whole Arabidopsis plants
  unintended effects on whole Arabidopsis plants: without negative unintended effects on whole plants
  branching phenotype of whole plants (in words): bushy appearance
LeCCD1a [1]
  IC50: 800 to 900 nM
  inhibition at 100 µM: > 95%

## O=C(Cc1ccc(O)c(O)c1)N(O)Cc1ccc(F)cc1 [Compound D3, N-(4-fluorobenzyl)-3,4-dihydroxyphenylacetyl hydroxamic acid]
Whole Arabidopsis plants
  unintended effects on whole Arabidopsis plants: negative effects on growth
LeCCD1a [1]
  inhibition of LeCCD1 in vitro (in words): high levels of inhibition of LeCCD1; also recorded: good inhibitors of the 9,10 enzymes in vitro
  IC50: 800 to 900 nM
  inhibition at 100 µM: > 95%
LeNCED1
  inhibition of LeNCED1 in vitro (in words): little or no inhibition of LeNCED1

## COc1ccc(CC(=O)N(O)Cc2ccccc2)cc1OC [Compound D5, N-benzyl-3,4-dimethoxyphenylacetyl hydroxamic acid]
Whole Arabidopsis plants
  unintended effects on whole Arabidopsis plants: without negative unintended effects on whole plants
  branching phenotype of whole plants (in words): bushy appearance; also recorded: largest effect on whole Arabidopsis plants, giving the greatest number of side branches
LeCCD1a [1]
  inhibition at 100 µM: > 95%
LeCCD1a [2]
  relative inhibition of LeCCD1a in E. coli (in words): relatively weaker inhibition activity

## COc1ccc(CC(=O)N(O)Cc2ccc(F)cc2)cc1OC [Compound D6, N-(4-fluorobenzyl)-3,4-dimethoxyphenylacetyl hydroxamic acid]
Whole Arabidopsis plants
  unintended effects on whole Arabidopsis plants: without negative unintended effects on whole plants
  branching phenotype of whole plants (in words): bushy appearance; also recorded: largest effect on whole Arabidopsis plants, giving the greatest number of side branches
LeCCD1a [1]
  inhibition at 100 µM: > 95%
LeCCD1a [2]
  relative inhibition of LeCCD1a in E. coli (in words): relatively weaker inhibition activity

## COc1ccc(CCC(=O)N(O)Cc2ccccc2)cc1OC [Compound D8, N-benzyl-3,4-dimethoxyphenylpropionyl hydroxamic acid]
LeCCD1a [1]
  LeCCD1a (9,10/9′,10′) Inhibition @ 100 μM (%): 61%
LeNCED1
  inhibition of LeNCED1 in vitro (in words): greatest inhibition of NCED in vitro; also recorded: best 11,12 inhibitor
  LeNCED1 (11,12) Inhibition @ 100 μM (%): 40%

## COc1ccc(CCC(=O)N(O)Cc2ccccc2)cc1 [Compound D9, N-benzyl-4-methoxyphenylpropionyl hydroxamic acid]
LeCCD1a [1]
  inhibition at 100 µM: > 95%

## CCCCCCCCN(O)C(=O)CCc1ccc(OC)c(OC)c1 [Compound D10, N-octyl-3,4-dimethoxyphenylpropionyl hydroxamic acid]
LeCCD1a [1]
  LeCCD1a (9,10/9′,10′) Inhibition @ 100 μM (%): 65%
LeNCED1
  LeNCED1 (11,12) Inhibition @ 100 μM (%): 14%

## CCCCCCCCN(O)C(=O)CCc1ccc(OC)cc1 [Compound D11, N-octyl-4-methoxyphenylpropionyl hydroxamic acid]
LeCCD1a [1]
  LeCCD1a (9,10/9′,10′) Inhibition @ 100 μM (%): 53%
LeNCED1
  LeNCED1 (11,12) Inhibition @ 100 μM (%): 15%

## COc1ccc(C=CC(=O)NO)cc1OC [Compound D12, 3,4-Dimethoxyphenylpropenoyl hydroxamic acid]
LeCCD1a [1]
  LeCCD1a (9,10/9′,10′) Inhibition @ 100 μM (%): 26%
LeNCED1
  LeNCED1 (11,12) Inhibition @ 100 μM (%): 11%

## COc1ccc(C=CC(=O)NO)cc1 [Compound D13, 4-Methoxyphenylpropenoyl hydroxamic acid]
LeCCD1a [1]
  LeCCD1a (9,10/9′,10′) Inhibition @ 100 μM (%): 46%
LeNCED1
  LeNCED1 (11,12) Inhibition @ 100 μM (%): 13%

## COc1ccc(C(=O)N(O)Cc2ccc(F)cc2)cc1OC [Compound F4, N-(4-fluorobenzyl)-3,4-dimethoxybenzoyl hydroxamic acid]
LeCCD1a [1]
  LeCCD1a (9,10/9′,10′) Inhibition @ 100 μM (%): 0%
LeNCED1
  LeNCED1 (11,12) Inhibition @ 100 μM (%): 0%
